In publication PMC9908594, “Biochemical characterization and identification of ferulenol and embelin as potent inhibitors of malate:quinone oxidoreductase from Campylobacter jejuni” (Frontiers in Molecular Biosciences, 2023):

What was measured:
human fibroblasts = system: human fibroblasts; parameters: method as in Feresin et al., 2003; details: ref Feresin et al., 2003, read-out: Toxic concentration IC50; cited from earlier work
CjMQO = CjMQO (Campylobacter jejuni, UniProt P56954); test: Inhibition mechanism of CjMQO (mixed-model fit, Lineweaver-Burk); type: biochemical
Method: The inhibition mechanism of the two compounds were investigated as described in a previous study ([Acharjee et al., 2021]). First, the inhibition mechanism versus UQ1 was assayed separately in a reaction mixture containing 50 mM MOPS pH 7.0, 1 mM KCN and 0.2 μg/mL of purified CjMQO containing a range of different ferulenol (0, 0.01, 0.02, and 0.04 μM) and embelin (0, 0.05, 0.1, and 0.15 μM) concentrations. Enzyme activity was measured at varying concentrations of UQ1 (5, 10, 20, 50, and 100 μM) and the reaction was initiated with 10 mM malate. Second, the inhibition mechanism versus malate was determined at 50 μM of UQ1, and the reaction was initiated with varying concentrations of malate (5, 10, 15, and 20 mM) and monitored at 278 nm, in singlets. The steady-state kinetics parameters, in the presence of inhibitors, were used to produce the Lineweaver-Burk plot. Next, the data were fitted to a mixed-type inhibition equation by a nonlinear-regression method using GraphPad Prism software. The intercept and slope from the primary plot (Lineweaver-Burk plot), were replotted as a function of the inhibitor. Finally, additional analysis was performed based on Dixon and Cornish Bowden plots in addition to the plot of Lineweaver-Burk to differentiate the types of inhibition mechanisms.

C. jejuni ATCC29428 = test: C. jejuni growth inhibition, resazurin assay; type: cell-based, Campylobacter jejuni
[1] = molecular target: CjMQO (malate:quinone oxidoreductase from C. jejuni) (Campylobacter jejuni, UniProt P56954); test: biochemical; type: biochemical; details: 50 mM MOPS pH 7.0, 100 μM UQ1, 1 mM KCN, 0.2 μg/mL CjMQO, 10 mM malate; read-out: IC50 on purified CjMQO
Sequence of CjMQO (malate:quinone oxidoreductase from C. jejuni) (P56954 whole entry): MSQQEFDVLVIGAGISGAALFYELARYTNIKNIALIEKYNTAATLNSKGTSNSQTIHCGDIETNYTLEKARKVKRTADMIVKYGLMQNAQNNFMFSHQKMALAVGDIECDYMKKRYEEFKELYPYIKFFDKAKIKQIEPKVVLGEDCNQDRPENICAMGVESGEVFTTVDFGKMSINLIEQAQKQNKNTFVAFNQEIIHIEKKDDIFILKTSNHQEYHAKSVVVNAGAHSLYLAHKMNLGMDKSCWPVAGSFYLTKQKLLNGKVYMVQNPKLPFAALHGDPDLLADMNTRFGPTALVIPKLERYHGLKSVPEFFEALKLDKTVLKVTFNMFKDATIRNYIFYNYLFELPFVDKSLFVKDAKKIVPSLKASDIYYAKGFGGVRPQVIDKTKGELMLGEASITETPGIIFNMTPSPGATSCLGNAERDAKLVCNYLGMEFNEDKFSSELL

Sequence of CjMQO (P56954 whole entry): as above

## CCCCCCCCCCCC1=C(O)C(=O)C=C(O)C1=O [Embelin, 2,5-dihydroxy-3-undecyl-p-benzoquinone]
Human fibroblasts
  IC50: 739 µM
CjMQO; UQ1 varied, malate fixed
  K m (apparent, mixed-model fit): 47 ± 6.3 µM
  V max (apparent, mixed-model fit): 164 ± 11 µmol/min/mg
  α versus UQ1 (quinone): 0.998
CjMQO; UQ1 varied, malate fixed (10 mM)
  K i versus UQ1: 0.14 µM
CjMQO; UQ1 varied, malate fixed, NC: noncompetitive
  Inhibition type versus UQ1 (quinone): noncompetitive
CjMQO; malate varied, UQ1 fixed
  Inhibition type versus malate: Mixed
  K m (apparent, mixed-model fit): 2,225 ± 292 μM
  V max (apparent, mixed-model fit): 71 ± 3 µmol/min/mg
  α versus malate: 1.43
CjMQO; malate varied, UQ1 fixed (50 μM)
  K i versus malate: 0.10 µM
CjMQO; malate varied, UQ1 fixed, listed as embelin
  Inhibition type versus malate: mixed-type
C. jejuni ATCC29428; Campylobacter jejuni, ATCC29428, Mueller Hinton broth, 24 h, microaerophilic, 37°C, resazurin
  IC50: 21 µM
C. jejuni ATCC29428; at a concentration of 100 μM
  Inhibition of growth of C. jejuni ATCC29428: completely inhibited
[1]
  IC50: 0.087 µM
